Reference: patent US7485647B2, “2-aminoquinoline derivatives” (Banyu Pharmaceutical Co., Ltd., priority 2003, dated 2009)
pIC50: −log10 of the molar value.

Target: T1, human MCH-1R (Homo sapiens, UniProt Q99705)
T1 construct: expressed in transfected cells; host or cells: CHO-K1 (American Type Culture Collection)
Test: MCH binding inhibition test
Conditions: membranes of MCH-1R expressing CHO-K1 cells, 50 pM [125I]MCH, 25° C., one hour; read-out: IC50 (50% inhibition concentration to specific [125I]MCH binding)
Description: A human MCH-1R encoding cDNA sequence [FEBS Letters, Vol. 398, p. 253 (1996); Biochimica et Biophisica Acta, Vol. 1401, p. 216 (1998)] was cloned to plasmid vector pEF/mic/cyto (Invitrogen Corporation). The obtained expression vector was transfected to a host cell CHO-K1 (American Type Culture Collection) using lipofectamine plus reagent (Life Technology Inc.) to provide MCH-1R expression cells.
Membrane samples prepared from the MCH-1R expression cells were incubated with each test compound and 50 pM of [^125I]MCH (NEN Co.), in an assay buffer (50 mM Tris buffer comprising 10 mM magnesium chloride, 2 mM ethylenediamine tetraacetate, 0.01% bacitracin and 0.2% bovine serum albumin; pH 7.4) at 25° C. for an hour, followed by filtration through Glass Filter GF/C (Wattman Co.). After washing the glass filter with 50 mM Tris buffer (pH7.4) comprising 10 mM magnesium chloride, 2 mM ethylenediamine tetraacetate and 0.04% Tween-20, radio activity on the glass filter was measured. Non-specific binding was measured in the presence of 1 μM human MCH and 50% inhibition concentration (IC50 value) of each test compound to specific [^125I] MCH binding was determined.

T1 sequence (Q99705 whole entry): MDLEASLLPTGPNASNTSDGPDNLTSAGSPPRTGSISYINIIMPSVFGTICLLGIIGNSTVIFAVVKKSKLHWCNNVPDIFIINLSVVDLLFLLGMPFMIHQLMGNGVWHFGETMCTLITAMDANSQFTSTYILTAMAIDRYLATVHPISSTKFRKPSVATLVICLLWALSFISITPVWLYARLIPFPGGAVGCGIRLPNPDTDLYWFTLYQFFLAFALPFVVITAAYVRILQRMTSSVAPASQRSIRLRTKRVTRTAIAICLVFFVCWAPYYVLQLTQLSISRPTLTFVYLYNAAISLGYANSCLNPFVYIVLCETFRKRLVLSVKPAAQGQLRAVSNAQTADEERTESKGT

Row | Structure (SMILES) | pIC50
1 | CN(C)C(=O)N(C)[C@@H]1CCN(c2ccc3cc(NC(=O)c4ncc(-c5ccccc5)cn4)ccc3n2)C1 [Example 9, N-(2-[(3R)-3-[[(dimethylamino)carbonyl](methyl)amino]-1-pyrrolidinyl]-6-quinolinyl)-5-phenyl-2-pyrimidinecarboxamide] | 8.43
2 | CC(C)C(=O)N(C)[C@@H]1CCN(c2ccc3cc(NC(=O)c4ncc(-c5ccccc5)cn4)ccc3n2)C1 [Example 3, N-(2-[(3R)-3-[isobutyryl(methyl)amino]-1-pyrrolidinyl]-6-quinolinyl)-5-phenyl-2-pyrimidinecarboxamide] | 8.39
3 | CN1C(=O)CCC12CCN(c1ccc3cc(NC(=O)c4ncc(-c5ccc(F)cc5)cn4)ccc3n1)C2 (stereo not drawn) [Example 1, 5-(4-Fluorophenyl)-N-[2-(1-methyl-2-oxo-1,7-diazaspiro[4,4]-nonan-7-yl)-6-quinolinyl]-2-pyrimidinecarboxamide] | 8.10
